PubChem BioAssay AID1918999 (Molecular Pharmacology Branch, DTP, NCI, 2023)

Tested on: 556581-035-R-J1-PDC complex spheroid growth
Assay: Anticancer human tumor 556581-035-R-J1-PDC patient-derived ovarian carcinoma cell line growth inhibition [AhR]
Conditions: for IC50: curve of first compound; for viability, T/C: stronger effect = lower value
How it was run: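 Complex tumor spheroids co-cultured with HUVEC and human MSC stroma; AhR antagonists tested in combination with standard-of-care and investigational agents. Top concentration at or near clinical Cmax (else 10 microM), half-log dilutions; growth expressed as percent test/control.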

[1] = second compound 0.1 µM, first compound 0.0316 µM
[2] = second compound 0.1 µM, first compound 0.1 µM
[3] = second compound 0.1 µM, first compound 0.316 µM
[4] = second compound 0.1 µM, first compound 1 µM
[5] = second compound 0.1 µM, first compound 3.16 µM
[6] = second compound 0.1 µM, first compound 10 µM
[7] = second compound 0.316 µM, first compound 0.0316 µM
[8] = second compound 0.316 µM, first compound 0.1 µM
[9] = second compound 0.316 µM, first compound 0.316 µM
[10] = second compound 0.316 µM, first compound 1 µM
[11] = second compound 0.316 µM, first compound 3.16 µM
[12] = second compound 0.316 µM, first compound 10 µM
[13] = second compound 1 µM, first compound 0.0316 µM
[14] = second compound 1 µM, first compound 0.1 µM
[15] = second compound 1 µM, first compound 0.316 µM
[16] = second compound 1 µM, first compound 1 µM
[17] = second compound 1 µM, first compound 3.16 µM
[18] = second compound 1 µM, first compound 10 µM
[19] = second compound 3.16 µM, first compound 0.0316 µM
[20] = second compound 3.16 µM, first compound 0.1 µM
[21] = second compound 3.16 µM, first compound 0.316 µM
[22] = second compound 3.16 µM, first compound 1 µM
[23] = second compound 3.16 µM, first compound 3.16 µM
[24] = second compound 3.16 µM, first compound 10 µM
[25] = second compound 10 µM, first compound 0.0316 µM
[26] = second compound 10 µM, first compound 0.1 µM
[27] = second compound 10 µM, first compound 0.316 µM
[28] = second compound 10 µM, first compound 1 µM
[29] = second compound 10 µM, first compound 3.16 µM
[30] = second compound 10 µM, first compound 10 µM
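Throughout, for viability, T/C: compound exposure lasted 7 days; 100% = DMSO vehicle control growth.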

CC(C)CC(NC(=O)C(Cc1ccccc1)NC(=O)c1cnccn1)B(O)O (stereo not given) + CC(CO)NC(=O)c1cc(-c2ccc(Cl)cc2)nn(-c2cnn(C)c2)c1=O
IC50 (second compound 0.1 µM): 5 nM | IC50 (second compound 0.316 µM): 4.57 nM | IC50 (second compound 1 µM): 5.43 nM | IC50 (second compound 3.16 µM): 4.7 nM | IC50 (second compound 10 µM): 5.22 nM | viability, T/C (second compound 0.1 µM, first compound 0.000949 µM): 91.6% | viability, T/C (second compound 0.1 µM, first compound 0.003 µM): 88.4% | viability, T/C (second compound 0.1 µM, first compound 0.00949 µM): 1.95% | viability, T/C (second compound 0.1 µM, first compound 0.03 µM): 0.49% | viability, T/C (second compound 0.1 µM, first compound 0.0949 µM): 0.12% | viability, T/C (second compound 0.1 µM, first compound 0.3 µM): 0.33% | viability, T/C (second compound 0.316 µM, first compound 0.000949 µM): 106% | viability, T/C (second compound 0.316 µM, first compound 0.003 µM): 77.9% | viability, T/C (second compound 0.316 µM, first compound 0.00949 µM): 1.51% | viability, T/C (second compound 0.316 µM, first compound 0.03 µM): 2.26% | viability, T/C (second compound 0.316 µM, first compound 0.0949 µM): 0.2% | viability, T/C (second compound 0.316 µM, first compound 0.3 µM): 0.8% | viability, T/C (second compound 1 µM, first compound 0.000949 µM): 105% | viability, T/C (second compound 1 µM, first compound 0.003 µM): 99.7% | viability, T/C (second compound 1 µM, first compound 0.00949 µM): 3.31% | viability, T/C (second compound 1 µM, first compound 0.03 µM): 0.19% | viability, T/C (second compound 1 µM, first compound 0.0949 µM): 0.15% | viability, T/C (second compound 1 µM, first compound 0.3 µM): 0.27% | viability, T/C (second compound 3.16 µM, first compound 0.000949 µM): 85.7% | viability, T/C (second compound 3.16 µM, first compound 0.003 µM): 81% | viability, T/C (second compound 3.16 µM, first compound 0.00949 µM): 0.92% | viability, T/C (second compound 3.16 µM, first compound 0.03 µM): 2.07% | viability, T/C (second compound 3.16 µM, first compound 0.0949 µM): 1.26% | viability, T/C (second compound 3.16 µM, first compound 0.3 µM): 1.55% | viability, T/C (second compound 10 µM, first compound 0.000949 µM): 99.6% | viability, T/C (second compound 10 µM, first compound 0.003 µM): 94.2% | viability, T/C (second compound 10 µM, first compound 0.00949 µM): 2.36% | viability, T/C (second compound 10 µM, first compound 0.03 µM): 0.3% | viability, T/C (second compound 10 µM, first compound 0.0949 µM): 0.55% | viability, T/C (second compound 10 µM, first compound 0.3 µM): 0.95%

COc1cc(Nc2ncc3c(n2)-c2ccc(Cl)cc2C(c2c(F)cccc2OC)=NC3)ccc1C(=O)O + CC(CO)NC(=O)c1cc(-c2ccc(Cl)cc2)nn(-c2cnn(C)c2)c1=O
IC50 (second compound 0.1 µM): > 10000 nM | IC50 (second compound 0.316 µM): > 10000 nM | IC50 (second compound 1 µM): > 10000 nM | IC50 (second compound 3.16 µM): > 10000 nM | IC50 (second compound 10 µM): > 10000 nM | viability, T/C [1]: 86% | viability, T/C [2]: 70.6% | viability, T/C [3]: 66% | viability, T/C [4]: 66.5% | viability, T/C [5]: 61.3% | viability, T/C [6]: 52.6% | viability, T/C [7]: 88.8% | viability, T/C [8]: 73.4% | viability, T/C [9]: 59% | viability, T/C [10]: 62.2% | viability, T/C [11]: 55.2% | viability, T/C [12]: 49.4% | viability, T/C [13]: 95.7% | viability, T/C [14]: 69.3% | viability, T/C [15]: 73.4% | viability, T/C [16]: 64.9% | viability, T/C [17]: 55.8% | viability, T/C [18]: 49.5% | viability, T/C [19]: 79.9% | viability, T/C [20]: 71.2% | viability, T/C [21]: 70.2% | viability, T/C [22]: 65.7% | viability, T/C [23]: 54% | viability, T/C [24]: 60.9% | viability, T/C [25]: 88.5% | viability, T/C [26]: 80.8% | viability, T/C [27]: 66% | viability, T/C [28]: 71.3% | viability, T/C [29]: 56.7% | viability, T/C [30]: 55.1%

Nc1ccccc1NC(=O)c1ccc(CNC(=O)OCc2cccnc2)cc1 + CC(CO)NC(=O)c1cc(-c2ccc(Cl)cc2)nn(-c2cnn(C)c2)c1=O
IC50 (second compound 0.1 µM): 1340 nM | IC50 (second compound 0.316 µM): 1590 nM | IC50 (second compound 1 µM): 1660 nM | IC50 (second compound 3.16 µM): 1440 nM | IC50 (second compound 10 µM): 1560 nM | viability, T/C [1]: 96.9% | viability, T/C [2]: 102% | viability, T/C [3]: 78% | viability, T/C [4]: 53.2% | viability, T/C [5]: 36.9% | viability, T/C [6]: 17.5% | viability, T/C [7]: 107% | viability, T/C [8]: 91% | viability, T/C [9]: 87.1% | viability, T/C [10]: 58.7% | viability, T/C [11]: 34.9% | viability, T/C [12]: 15.4% | viability, T/C [13]: 118% | viability, T/C [14]: 100% | viability, T/C [15]: 77.3% | viability, T/C [16]: 60.8% | viability, T/C [17]: 38.6% | viability, T/C [18]: 17.8% | viability, T/C [19]: 105% | viability, T/C [20]: 102% | viability, T/C [21]: 84.8% | viability, T/C [22]: 58% | viability, T/C [23]: 33.2% | viability, T/C [24]: 20.6% | viability, T/C [25]: 106% | viability, T/C [26]: 103% | viability, T/C [27]: 88.6% | viability, T/C [28]: 62.8% | viability, T/C [29]: 30.4% | viability, T/C [30]: 12.6%

O=C(C=Cc1cccc(S(=O)(=O)Nc2ccccc2)c1)NO + CC(CO)NC(=O)c1cc(-c2ccc(Cl)cc2)nn(-c2cnn(C)c2)c1=O
IC50 (second compound 0.1 µM): 1180 nM | IC50 (second compound 0.316 µM): 1280 nM | IC50 (second compound 1 µM): 1470 nM | IC50 (second compound 3.16 µM): 1190 nM | IC50 (second compound 10 µM): 1080 nM | viability, T/C [1]: 96.6% | viability, T/C [2]: 88.9% | viability, T/C [3]: 75.1% | viability, T/C [4]: 53.6% | viability, T/C [5]: 27.9% | viability, T/C [6]: 3.75% | viability, T/C [7]: 94% | viability, T/C [8]: 91.2% | viability, T/C [9]: 80.6% | viability, T/C [10]: 56.2% | viability, T/C [11]: 25.7% | viability, T/C [12]: 3.23% | viability, T/C [13]: 105% | viability, T/C [14]: 96.8% | viability, T/C [15]: 88% | viability, T/C [16]: 63.6% | viability, T/C [17]: 24.9% | viability, T/C [18]: 2.84% | viability, T/C [19]: 98.7% | viability, T/C [20]: 93.7% | viability, T/C [21]: 74.1% | viability, T/C [22]: 54.1% | viability, T/C [23]: 28.1% | viability, T/C [24]: 3.83% | viability, T/C [25]: 105% | viability, T/C [26]: 104% | viability, T/C [27]: 75.8% | viability, T/C [28]: 53% | viability, T/C [29]: 24.3% | viability, T/C [30]: 4.22%
